pIC50: −log10 of the molar value.
Experiments:
LSD1 = details: read-out: IC50 (LSD1 inhibitor); cited from earlier work
[1] = tested on: SFRP2 in Calu-6 anaplastic epithelial lung carcinoma cells; test: Re-expression of SFRP2 in Calu-6 cells; type: cell-based, human; details: 24 or 48 hours
[2] = tested on: global H3K4me2 levels in Calu-6 human lung adenocarcinoma cells; test: cells; details: Calu-6, 48 h, read-out: H3K4me2 Fold Increase (48 h), 10 μM, Calu-6 cells
[3] = tested on: H3K4me1 levels in Calu-6 human lung adenocarcinoma cell line; test: Global H3K4me1 levels in Calu-6 cells; type: cell-based; details: at both 24 and 48 hours
[4] = tested on: global H3K4me2 levels in Calu-6 human lung adenocarcinoma cells; details: time point not stated
[5] = tested on: HCAD in Calu-6 anaplastic epithelial lung carcinoma cells; test: Re-expression of HCAD in Calu-6 cells; type: cell-based, human; details: 10 μM

N=C(N)NN [Aminoguanidine]
effect on SFRP2 levels ([1]; 1 mM): no effect

N=C(NCCCNCCCCCCCNCCCNC(=N)NC(=N)NCCC(c1ccccc1)c1ccccc1)NC(=N)NCCC(c1ccccc1)c1ccccc1 [Compound 2d, (bis)-3,3-(diphenyl)propylbiguanide, reference compound]
fold induction at 10 µM [2]: 5

Cl.N=C(N)SCCN1C(=O)c2ccccc2C1=O [Compound 5, 2-[N-(phthalimido)]ethyl carbamimidothioate hydrochloride]
Increases in H3K4me1 levels [3]: unremarkable

Cl.Cl.NCCNc1c([N+](=O)[O-])cc(C(F)(F)F)cc1[N+](=O)[O-] [Compound 6]
Increases in H3K4me1 levels [3]: unremarkable | changes in H3K4 / lysine methylation in the Calu-6 cell line [4]: no effect

Cl.N=C(N)SCCCN1C(=O)c2ccccc2C1=O [Compound 8]
Increases in H3K4me1 levels [3]: unremarkable

Cl.N=C(N)SCCCCN1C(=O)c2ccccc2C1=O [Compound 9]
Increases in H3K4me1 levels [3]: unremarkable

CCNCCCCNCCCCNCCCCNCCCCNC/C=C/CNCCCCNCCCCNCCCCNCCCCNCC [PG11144]
effect on SFRP2 levels ([1]; 5 μM): no effect | fold increase in HCAD expression, 24 hours [5]: 1.47 fold

Reference: publication PMC3482425 (Journal of medicinal chemistry, 2012)
